Experimental data taken from patent publication US9067924B2, “1,4 thiazepines/sulfones as BACE1 and/or BACE2 inhibitors” (HOFFMANN-LA ROCHE INC., priority 2011, dated 2015).

Experiments:
[1] = molecular target: BACE1 (Homo sapiens (Human), UniProt P56817); experiment: Cellular Aβ-lowering assay; format: cell-based; conditions: HEK293 cells expressing human APP695, Aβ40 in supernatant by ELISA
Experimental: Cellular Aβ-Lowering Assay:
Human HEK293 cells which are stably transfected with a vector expressing a cDNA of the human APP wt gene (APP695) were used to assess the potency of the compounds in a cellular assay. The cells were seeded in 96-well microtiter plates in cell culture medium (Iscove, plus 10% (v/v) fetal bovine serum, glutamine, penicillin/streptomycin) to about 80% confluence and the compounds were added at a 10× concentration in 1/10 volume of medium without FCS containing 8% DMSO (final concentration of DMSO was kept at 0.8% v/v). After 18-20 hrs incubation at 37° C. and 5% CO2 in a humidified incubator the culture supernatant was harvested for the determination of Aβ40 concentrations. 96 well ELISA plates (e.g., Nunc MaxiSorb) were coated with monoclonal antibody which specifically recognize the C-terminal end of Aβ40 (Brockhaus et al., NeuroReport 9, 1481-1486; 1998). After blocking of non-specific binding sites with e.g. 1% BSA and washing, the culture supernatants were added in suitable dilutions together with a horseradish peroxidase-coupled Aβ detection antibody (e.g., antibody 4G8, Senetek, Maryland Heights, Mo.) and incubated for 5 to 7 hrs. Subsequently the wells of the microtiter plate were washed extensively with Tris-buffered saline containing 0.05% Tween 20 and the assay was developed with tetramethylbenzidine/H2O2 in citric acid buffer. After stopping the reaction with one volume 1 N H2SO4 the reaction was measured in an ELISA reader at 450 nm wavelength. The concentrations of Aβ in the culture supernatants were calculated from a standard curve obtained with known amounts of pure Aβ peptide.

[2] = molecular target: BACE2 (Rattus norvegicus (Rat), UniProt Q6IE75); experiment: Assay for BACE inhibition by measuring cellular TMEM27 cleavage; format: cell-based; conditions: INS-TMEM27 (INS1e-derived) cells, shed hTMEM27 by ELISA
Chain of BACE2 (Q6IE75 63-514): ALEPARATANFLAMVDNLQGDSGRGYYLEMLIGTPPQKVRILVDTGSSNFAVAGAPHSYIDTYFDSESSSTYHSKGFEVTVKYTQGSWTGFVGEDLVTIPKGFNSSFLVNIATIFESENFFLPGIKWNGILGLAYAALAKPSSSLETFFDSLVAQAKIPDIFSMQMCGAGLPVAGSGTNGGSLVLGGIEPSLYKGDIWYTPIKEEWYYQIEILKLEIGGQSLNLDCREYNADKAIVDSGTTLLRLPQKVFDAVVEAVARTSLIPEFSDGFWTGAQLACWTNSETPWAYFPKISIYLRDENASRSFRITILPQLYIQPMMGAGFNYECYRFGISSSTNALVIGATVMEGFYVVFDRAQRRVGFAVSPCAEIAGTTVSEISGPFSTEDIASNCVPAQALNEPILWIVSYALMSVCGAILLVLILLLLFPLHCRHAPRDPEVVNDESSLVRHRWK
Text: Assay for BACE Inhibition by Measuring Cellular TMEM27 Cleavage:
The assay uses the principle of inhibition of human TMEM27 cleavage by endogenous cellular BACE2 in the Ins1e rat cell line and shedding from the cell surface into the culture medium, followed by detection in an ELISA assay Inhibition of BACE2 prevents the cleavage and shedding in a dose-dependent manner.
The stable cell line “INS-TMEM27” represents an INS1e-derived cell line with inducible expression (using the TetOn system) of full-length hTMEM27 in a doxycycline-dependent manner. The cells are cultured throughout the experiment in RPMI1640+Glutamax (Invitrogen) Penicillin/Streptomycin, 10% Fetal bovine serum, […], […], 100 micrograms/ml G418 and 100 microgram/ml hygromycin and are grown inadherent culture at 37° C. in a standard CO2 cell culture incubator.
INS-TMEM27 cells are seeded in 96-well plates. After 2 days in culture, BACE2 inhibitor is added in a range of concentrations as required by the assay and after a further two hours, doxycycline is added to a final concentration of 500 ng/ml. The cells are incubated for a further 46 hours and the supernatant harvested for detection of shed TMEM27.
An ELISA assay (using a pair of mouse anti-human-TMEM27 antibodies, raised against the extracellular domain of TMEM27) is used for detection of TMEM27 in the culture medium. An EC50 for BACE2 inhibition is calculated using the ELISA readout for each inhibitor concentration with standard curve-fitting software such as XLFit for the Excel spreadsheet program.

Chain of BACE1 (P56817 46-501): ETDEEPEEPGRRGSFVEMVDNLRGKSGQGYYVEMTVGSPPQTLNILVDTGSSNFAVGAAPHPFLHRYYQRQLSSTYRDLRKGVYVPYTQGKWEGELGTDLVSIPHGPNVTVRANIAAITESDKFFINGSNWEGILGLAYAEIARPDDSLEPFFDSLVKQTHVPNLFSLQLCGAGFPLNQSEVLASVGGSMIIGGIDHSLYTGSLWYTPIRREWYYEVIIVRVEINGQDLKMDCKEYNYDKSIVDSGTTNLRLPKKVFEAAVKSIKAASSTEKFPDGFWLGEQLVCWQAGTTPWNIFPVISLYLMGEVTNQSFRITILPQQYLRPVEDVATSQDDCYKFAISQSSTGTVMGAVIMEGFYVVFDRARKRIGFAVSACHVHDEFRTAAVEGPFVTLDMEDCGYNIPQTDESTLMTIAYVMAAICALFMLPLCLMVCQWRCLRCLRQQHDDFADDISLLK

| SMILES | IC50 [1] [nM] | IC50 [2] [nM] |
| --- | --- | --- |
| C[C@@]1(c2cc(NC(=O)c3ccc(Cl)cn3)ccc2F)CCS(=O)(=O)CC(N)=N1 [Example 3, 5-Chloro-pyridine-2-carboxylic acid [3-((S)-3-amino-5-methyl-1,1-dioxo-2,5,6,7-tetrahydro-1H-1λ^6-[1,4]thiazepin-5-yl)-4-fluoro-phenyl]-amide] | 3 | 5 |
| CC1SCC[C@@](C)(c2cc(NC(=O)c3ccc(Cl)cn3)ccc2F)N=C1N (stereo in doubt) [Example 6, 5-Chloro-pyridine-2-carboxylic acid [3-((S)-3-amino-2,5-dimethyl-2,5,6,7-tetrahydro-[1,4]thiazepin-5-yl)-4-fluoro-phenyl]-amide] | 140 | 9 |
| CC1SCC[C@@](C)(c2cc(NC(=O)c3ccc(F)cn3)ccc2F)N=C1N (stereo in doubt) [Example 5, 5-Fluoro-pyridine-2-carboxylic acid [3-((S)-3-amino-2,5-dimethyl-2,5,6,7-tetrahydro-[1,4]thiazepin-5-yl)-4-fluoro-phenyl]-amide] | 170 | 21 |
| CC1C(N)=N[C@](C)(c2cc(NC(=O)c3ccc(F)cn3)ccc2F)CCS1(=O)=O (stereo in doubt) [Example 7, 5-Fluoro-pyridine-2-carboxylic acid [3-((S)-3-amino-2,5-dimethyl-1,1-dioxo-2,5,6,7-tetrahydro-1H-1λ^6-[1,4]thiazepin-5-yl)-4-fluoro-phenyl]-amide] | 4 | 2 |
| C[C@@]1(c2cc(NC(=O)c3ccc(F)cn3)ccc2F)CCS(=O)(=O)CC(N)=N1 [Example 4, 5-Fluoro-pyridine-2-carboxylic acid [3-((S)-3-amino-5-methyl-1,1-dioxo-2,5,6,7-tetrahydro-1H-1λ^6-[1,4]thiazepin-5-yl)-4-fluoro-phenyl]amide] | 20 | 4 |
| C[C@@]1(c2cc(NC(=O)c3ccc(F)cn3)ccc2F)CCSCC(N)=N1 [Example 2, 5-Fluoro-pyridine-2-carboxylic acid [3-((S)-3-amino-5-methyl-2,5,6,7-tetrahydro-[1,4]thiazepin-5-yl)-4-fluoro-phenyl]-amide] | 16 | 79 |
| C[C@@]1(c2cc(NC(=O)c3ccc(Cl)cn3)ccc2F)CCSCC(N)=N1 [Example 1, 5-Chloro-pyridine-2-carboxylic acid [3-((S)-3-amino-5-methyl-2,5,6,7-tetrahydro-[1,4]thiazepin-5-yl)-4-fluoro-phenyl]-amide] | 6.3 | 167 |

Now from value to compound:

| IC50 [1] [nM] | IC50 [2] [nM] | SMILES |
| --- | --- | --- |
| 2290 |  | CC1(C)C(N)=N[C@](C)(c2cc(NC(=O)c3[nH]ncc3Cl)ccc2F)CCS1(=O)=O [Example 11, 4-Chloro-2H-pyrazole-3-carboxylic acid [3-((S)-3-amino-2,2,5-trimethyl-1,1-dioxo-2,5,6,7-tetrahydro-1H-1λ^6-[1,4]thiazepin-5-yl)-4-fluoro-phenyl]-amide] |
| 300 | 858 | CC1C(N)=N[C@](C)(c2cc(NC(=O)c3[nH]ncc3Cl)ccc2F)CCS1(=O)=O (stereo in doubt) [Example 9, 4-Chloro-2H-pyrazole-3-carboxylic acid [3-((S)-3-amino-2,5-dimethyl-1,1-dioxo-2,5,6,7-tetrahydro-1H-1λ^6-[1,4]thiazepin-5-yl)-4-fluoro-phenyl]-amide] |
| 78 |  | C[C@]1(c2cc(NC(=O)c3ccc(C#N)cn3)ccc2F)N=C(N)CS(=O)(=O)[C@H]2COC[C@@H]21 (relative stereo) [Example 14, 5-Cyano-pyridine-2-carboxylic acid [3-((3aR,8S,8aS)-rel-6-amino-8-methyl-4,4-dioxo-3,3a,4,5,8,8a-hexahydro-1H-2-oxa-4λ^6-thia-7-aza-azulen-8-yl)-4-fluoro-phenyl]-amide] |
| 62 | 181 | CC1(C)C(N)=N[C@](C)(c2cc(NC(=O)c3ccc(F)cn3)ccc2F)CCS1(=O)=O [Example 10, 5-Fluoro-pyridine-2-carboxylic acid [3-((S)-3-amino-2,2,5-trimethyl-1,1-dioxo-2,5,6,7-tetrahydro-1H-1λ^6-[1,4]thiazepin-5-yl)-4-fluoro-phenyl]-amide] |
| 30 | 16 | CC1C(N)=N[C@](C)(c2cc(NC(=O)c3ccc(Cl)cn3)ccc2F)CCS1(=O)=O (stereo partly drawn) [Example 8, 5-Chloro-pyridine-2-carboxylic acid [3-((S)-3-amino-2,5-dimethyl-1,1-dioxo-2,5,6,7-tetrahydro-4H-1λ^6-[1,4]thiazepin-5-yl)-4-fluoro-phenyl]-amide] |
| 53 |  | CC1(C)C(N)=N[C@](C)(c2cc(NC(=O)c3ccc(C#N)cn3)ccc2F)CCS1(=O)=O [Example 12, 5-Cyano-pyridine-2-carboxylic acid [3-((S)-3-amino-2,2,5-trimethyl-1,1-dioxo-2,5,6,7-tetrahydro-1H-1λ^6-[1,4]thiazepin-5-yl)-4-fluoro-phenyl]-amide] |
| 260 |  | N#Cc1ccc(C(=O)Nc2ccc(F)c([C@]3(C(F)F)CCS(=O)(=O)CC(N)=N3)c2)nc1 [Example 13, 5-Cyano-pyridine-2-carboxylic acid [3-((S)-3-amino-5-difluoromethyl-1,1-dioxo-2,5,6,7-tetrahydro-1H-1λ^6-[1,4]thiazepin-5-yl)-4-fluoro-phenyl]-amide] |
